Source: patent publication US20030171400A1, “Heterocyclic side chain containing metalloprotease inhibitors” (priority 2000, published 2003)

Experiments:
Assay type in all cases: in vivo
[1] = test system: human subject suffering from osteoarthritis; experiment: Example B: capsule treatment of a subject suffering from osteoarthritis; conditions: capsule containing 70 mg daily for 5 years, 90 kg human
Description: A capsule for oral administration, according to the present invention, is made comprising:
A human subject weighing 90 kg (198 lbs.), suffering from osteoarthritis, is treated by a method of this invention. Specifically, for 5 years, a capsule containing 70 mg of the compound of Example 3 is administered daily to said subject.

[2] = test system: human subject suffering from rheumatoid arthritis; experiment: Example A: tablet treatment of a subject suffering from rheumatoid arthritis; conditions: tablet with 15 mg compound, three tablets per day orally for 2 years, 60 kg human
Description: A tablet composition for oral administration, according to the present invention, is made comprising:
A human subject weighing 60 kg (132 lbs), suffering from rheumatoid arthritis, is treated by a method of this invention. Specifically, for 2 years, a regimen of three tablets per day is administered orally to said subject.

asthma sufferer = experiment: Example E: inhalation aerosol for asthma; conditions: 5.0% w/v inhalation aerosol, 0.01 mL sprayed into the mouth while inhaling
Description: An inhalation aerosol composition, according to the present invention, is made comprising: An asthma sufferer sprays 0.01 mL via a pump actuator into the mouth while inhaling.

CC(C)(C)OC(=O)N1CCC(C(NS(=O)(=O)c2ccc(Oc3ccccc3)cc2)C(=O)O)CC1 (stereo not drawn) [Example 3, 4-[Carboxy-(4-phenoxy-benzenesulfonylamino)-methyl]-piperidine-1-carboxylic acid tert-butyl ester]
erosion/fibrillation of the articular cartilage via x-ray, arthroscopy and/or MRI at the end of treatment [1]: no further advancement of erosion/fibrillation of the articular cartilage

COCCOC(=O)N1CCC(C(NS(=O)(=O)c2ccc(-c3ccc(OC)cc3)cc2)C(=O)O)CC1 (stereo not drawn) [Example 31, 4-[Carboxy-(4′-methoxy-biphenyl-4-sulfonylamino)-methyl]-piperidine-1-carboxylic acid 2-methoxy-ethyl ester]
patient examination at the end of the treatment period (inflammation, mobility, pain) [2]: reduced inflammation, and improved mobility without concomitant pain

COc1ccc(-c2ccc(S(=O)(=O)NC3(C(=O)O)CCNCC3)cc2)cc1 [Example 56, 4-(4′-Methoxy-biphenyl-4-sulfonylamino)-piperidine-4-carboxylic acid]
asthma symptoms (asthma sufferer): Asthma symptoms are diminished
